Measured values reported in PubChem BioAssay (NCI).
“And” between values parts separate entries of the source, which are not always exact repeats. Identical values can stand only once.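 In this assay, cells in 96-well plates receive the compound at five concentrations for 48 hours. Endpoints are linearly interpolated between the surrounding concentrations. Abbreviation: GI50, concentration required for 50% inhibition of growth. TGI denotes the concentration required for complete inhibition of growth.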

Key:
Test in all cases: NCI tumour cell line growth inhibition, 48 h
786-0 renal = system: 786-0 renal
HOP-92 NSCLC = system: HOP-92 NSCLC
HS 578T breast = system: HS 578T breast
K-562 leukemia = system: K-562 leukemia
OVCAR-3 ovarian = system: OVCAR-3 ovarian
OVCAR-4 ovarian = system: OVCAR-4 ovarian
OVCAR-8 ovarian = system: OVCAR-8 ovarian
SF-268 CNS = system: SF-268 CNS
SK-MEL-5 melanoma = system: SK-MEL-5 melanoma
SW-620 colon = system: SW-620 colon

SMILES | GI50 (786-0 renal) [µM] | TGI (786-0 renal) [µM] | GI50 (HOP-92 NSCLC) | TGI (HOP-92 NSCLC) | GI50 (HS 578T breast) [µM] | TGI (HS 578T breast) [µM] | GI50 (K-562 leukemia) [µM] | TGI (K-562 leukemia) [µM] | GI50 (OVCAR-3 ovarian) [µM] | TGI (OVCAR-3 ovarian) [µM] | GI50 (OVCAR-4 ovarian) [µM] | TGI (OVCAR-4 ovarian) [µM] | GI50 (OVCAR-8 ovarian) [µM] | TGI (OVCAR-8 ovarian) | GI50 (SF-268 CNS) | TGI (SF-268 CNS) [µM] | GI50 (SK-MEL-5 melanoma) [µM] | TGI (SK-MEL-5 melanoma) [µM] | GI50 (SW-620 colon) [µM] | TGI (SW-620 colon)
O=C(Nc1cc(Cl)cc(Cl)c1)c1cccc(NC2=C(Cl)C(=O)N(Cc3ccccc3)C2=O)c1 | 26.8 | > 100 | 18.9 µM | 85.7 µM | 32.7 | > 100 | 7.89 | > 100 | 21.8 | > 100 | 81.3 | > 100 | 41.7 | > 100 µM | 42.7 µM | > 100 | 16.6 | 34.8 | – | –
O=C1NC2(CCCCC2)C(=O)N1CCN(CCCl)CCCl | – | > 25 | > 25 µM and 22.9 µM | > 25 µM and 48.3 µM | – | > 25 | > 25 | > 250 | > 244 | > 250 | > 25 | > 250 | > 25 | > 25 µM and 173 µM | > 25 µM and 112 µM | > 250 | > 25 | > 250 | > 25 | > 25 µM and 150 µM
Cc1ccc(Cl)c(NS(=O)(=O)c2ccc(-c3cnc(C4CC4)o3)cc2)c1 | 0.0772 | > 100 | 2.3 µM | 20.5 µM | 0.0729 | > 69.6 | 0.0479 | > 100 | 0.0674 | 4.17 | 2.1 | 80.6 | 0.258 | > 58.9 µM | 3.33 µM | > 66.3 | 0.399 | 3.72 | 0.0528 | > 100 µM
Nc1ncc(-c2ccc3ncnc(N4CCc5ccc(Cl)cc54)c3c2)cc1C(F)(F)F | 1.6 | 12 | 0.137 µM | 6.41 µM | 0.326 | 3.05 | 3.98 | > 100 | 1.05 | 15.1 | 1.07 | 3.23 | 2.15 | 22.6 µM | 1.13 µM | 24.7 | 5.08 | 28.8 | 3.55 | 37.3 µM
COc1cc2c(c(OC)c1OC)-c1ccc(SC)c(=O)cc1[C@@H](NC(=O)C(F)(F)F)CC2 | – | 38.6 | – | 0.105 µM | – | 71.1 | – | > 85.2 | – | 1.3 | – | > 100 | – | > 72.6 µM | – | 63.9 | – | 0.138 | – | > 100 µM
Cc1nc2sc3c(N)ncnc3c2c(C)c1C | > 25 | > 25 | > 25 µM | > 25 µM | 24.9 | > 25 | > 25 | > 25 | > 25 | > 25 | > 25 | > 25 | > 25 | > 25 µM | > 25 µM | > 25 | > 25 | > 25 | > 25 | > 25 µM
CCN(CC)CCN1c2nc3ccccc3cc2Sc2cc3ccccc3nc21 | 2.17 | 4.64 | 0.869 µM | 3.2 µM | 1.73 | 4.61 | 3.04 | > 100 | 1.85 | 4.9 | 2.74 | 13.4 | 2.43 | 8.15 µM | 3.34 µM | 13 | 1.36 | 2.69 | 1.53 | 2.99 µM
CCOc1ccc(C(C[N+](=O)[O-])Sc2ccccc2N)cc1 (stereo unspecified) | 5.11 | 17.1 | 16.5 µM | 30.9 µM | 3.1 | 18.3 | 2.97 | 11.9 | 2.92 | 12 | 13 | 26 | 8.97 | 22.6 µM | 4.76 µM | 18.3 | 6.34 | 19.4 | 1.73 | 4.45 µM
CCN(CC)c1ccc(-c2cc(-c3cc(OC)c(OC)c(OC)c3)nc(N3CCC(O)CC3)c2C#N)cc1 | 0.337 | 20.3 | 0.215 µM | 0.689 µM | 3.94 | > 100 | 0.353 | 2.13 | 1.17 | 3.02 | 0.789 | > 100 | 0.441 | 7.44 µM | 0.988 µM | 3.13 | 0.156 | 0.365 | 0.448 | 12.7 µM
CCN1C(=O)N(CC)C2C1NN=c1s/c(=C3\C(=O)N(C4CCCC4)c4ccccc43)c(=O)n12 (stereo unspecified) | 1.71 | 4.86 | 1.21 µM | 6.4 µM | 1.01 | 8.77 | 0.37 | > 100 | 0.516 | 2.09 | – | – | 2.12 | > 100 µM | 2.38 µM | 27.6 | – | – | 0.551 | > 100 µM
COc1ccccc1[As]=[As]c1ccccc1OC (stereo unspecified) | 0.0377 | 0.0853 | 0.102 µM | 0.228 µM | 0.0378 | 0.334 | 0.0324 | – | 0.0234 | 0.0531 | 0.0372 | 0.146 | 0.0507 | 0.194 µM | 0.036 µM | 0.14 | 0.0468 | 0.163 | 0.0182 | 0.0403 µM
N#Cc1nc(C#N)c(Sc2ccccc2)c(Sc2ccccc2)c1Sc1ccccc1 | 0.392 | – | 2.52 µM | 20.9 µM | 0.463 | > 100 | 1.55 | > 29.9 | 1.45 | 2.89 | 2.74 | > 27.8 | 0.287 | 0.911 µM | 0.331 µM | 1.03 | 1.31 | 2.69 | 0.232 | 0.5 µM
CNC(=O)c1c(F)cccc1Nc1nc(Nc2cc3c(cc2OC)CCN3C(=O)CN(C)C)nc2[nH]ccc12 | 11.3 | 33.2 | 0.0309 µM | 1.6 µM | 17.8 | 46.8 | 2.58 | 6.41 | 15 | 30.8 | 1.87 | 3.99 | 2.79 | 8.5 µM | 5.44 µM | 15.2 | 5.67 | 23.1 | 1.14 | 3.42 µM
O=C(/C=C/c1ccccn1)c1ccc(OCc2nnc(-c3ccc(Cl)cc3)o2)cc1 | 1.78 | 3.23 | 2.35 µM | 6.33 µM | 3.33 | 10.3 | 2 | 4.8 | 1.73 | 3.25 | 3.42 | 12.4 | 2.48 | 5.57 µM | – | – | 1.56 | 3.14 | 1.91 | 3.93 µM
Cn1cc(C2=C(c3cn(CCCN)c4ccccc34)C(=O)NC2=O)c2ccccc21 | 4.75 | 14.2 | 8.26 µM | 17.6 µM | 3.91 | 16.8 | 4.29 | 14.6 | 5.86 | 16.2 | 4.22 | 12.9 | 5.46 | 14.7 µM | 5.33 µM | 12.8 | 3.77 | 7.26 | 4.38 | 9.37 µM
COS(C)(=O)=O | – | > 2 | – | > 2 µM | – | > 2 | – | > 2 | – | > 2 | – | > 2 | – | > 2 µM | – | > 2 | – | – | – | > 2 µM
COc1ccc(C2C(C#N)=C(N)Oc3c2sc2c(Br)cccc32)cc1 (stereo unspecified) | 3.25 | 13 | 8.88 µM | 26.4 µM | 3.3 | 36.1 | 0.404 | 5.79 | 0.979 | 3.75 | 3.02 | 21.9 | 4.99 | 25.3 µM | 4.62 µM | 21.5 | 2.4 | 10.7 | 1.87 | 86.6 µM
Fc1ccc(-c2nn3ccccc3c2-c2ccncc2)cc1 | > 25 | > 25 | 4.53 µM | > 25 µM | > 25 | > 25 | > 25 | > 25 | > 25 | > 25 | > 25 | > 25 | > 25 | > 25 µM | > 25 µM | > 25 | > 22.8 | > 25 | > 25 | > 25 µM
O=C1Cc2cc(CCn3cncn3)c(Cl)cc2N1 | > 100 | > 100 | 3.02 µM | > 100 µM | 0.72 | > 100 | 7.68 | > 100 | > 100 | > 100 | > 100 | > 100 | 69.4 | > 100 µM | 59.6 µM | > 100 | 10.1 | > 100 | 6.6 | > 100 µM
CCC(=O)N1C/C(=C/c2ccc(Br)cc2)C(=O)/C(=C/c2ccc(Br)cc2)C1 | 0.546 | 1.2 | 1.69 µM | 4.13 µM | 0.644 | 4.12 | 0.183 | 6.1 | 0.588 | 1.56 | 1.01 | 3.75 | 0.499 | 2.88 µM | 0.902 µM | 3.06 | 0.996 | 2.45 | 0.22 | 0.82 µM
Cn1c(=O)c(Oc2ccc(F)cc2F)cc2cnc(N[C@@H]3CCOC3)nc21 | > 25 | > 25 | 8.69 µM | > 25 µM | > 25 | > 25 | > 25 | > 25 | > 25 | > 25 | > 25 | > 25 | > 25 | > 25 µM | > 25 µM | > 25 | > 25 | > 25 | > 25 | > 25 µM
COc1ccc2c(c1)CCc1cc(OC)ccc1/[N+]([O-])=[N+]\2[O-] | – | 18.6 | – | 27.2 µM | – | > 59.8 | – | > 72.1 | – | 33.9 | – | – | – | 33 µM | – | 32.9 | – | 31.6 | – | 26.1 µM
Oc1ccc(C(O)(c2ccccc2)c2ccccc2)c2ccccc12 | – | 6.61 | – | 5.22 µM | – | 44.8 | – | 23.5 | – | 3.93 | – | 20.7 | – | – | – | 9.63 | – | 14.6 | – | 9.64 µM
OC1CCCC2CCC[N-]C12.OC1CCCC2CCC[N-]C12.[O]=[V][OH] (stereo unspecified) | 7.08 | 24.8 | 22.9 µM | > 100 µM | 21.2 | > 100 | 1.93 | 14.4 | 0.359 | 2.27 | 3.05 | > 100 | 2.98 | > 100 µM | 4.04 µM | > 100 | 5.57 | 46.2 | 3.5 | 37.5 µM
COc1ccc(-c2cn(-c3ccc(OC)c(OC)c3)c(=O)[nH]2)cc1 | > 100 | > 100 | > 100 µM | > 100 µM | > 100 | > 100 | 37.4 | > 100 | > 100 | > 100 | 75.7 | > 100 | – | – | > 100 µM | > 100 | 63.3 | > 100 | > 100 | > 100 µM
CCCCOc1ccc(/C=N/Nc2cc(C)nc3ccc(Br)cc23)cc1 | 1.83 | 3.37 | 1.54 µM | 3.11 µM | 1.99 | 4.71 | 1.71 | 3.97 | 2.06 | 3.84 | 1.67 | 3.06 | 1.77 | 3.53 µM | – | – | 1.68 | 3.05 | – | –
C#CC1(O)C(COP(=O)(O)OCC2OC(n3cc(F)c(=O)[nH]c3=O)CC2O)OC(n2ccc(N)nc2=O)C1O (stereo unspecified) | < 0.01 | > 100 | 0.196 µM | > 46.4 µM | < 0.0265 | 8.44 | < 0.01 | > 100 | < 0.01 | 0.746 | – | – | < 0.01 | – | < 0.01 µM | 5.81 | < 0.01 | 0.0412 | < 0.01 | > 100 µM
